Test results taken from patent US8722849B2, “Polypeptides” (Novo Nordisk A/S, priority 2011, dated 2014).
Starred links: 1 amine or outer side, 2 acyl side, 3 side chain; linkers in the order of their positions; H or OH if unused. Positions of bridges follow the written chain, without caps; N, C: chain ends. Non-standard residues stand in square brackets, D forms with d. Residues, ends and D or L forms follow the SMILES beside them. *: point of attachment. C20 diacid = O=C(O)CCCCCCCCCCCCCCCCCCC(=O)*; C18 diacid = O=C(O)CCCCCCCCCCCCCCCCC(=O)*; γGlu = O=C(O)[C@H](CCC(=O)[*:2])N[*:1]; Orn = NCCC[C@H](N)C(=O)O; AEEA = NCCOCCOCC(=O)O

Assays:
[1] = biological target: T1, human amylin receptor (amylin 3(a) receptor: human calcitonin receptor + RAMP-3) (Homo sapiens, UniProt O60896+P30988); test: Assay (II)a functional CRE-luciferase assay, human amylin receptor; format: cell-based; conditions: Table 2; BHK amylin 3(a)-receptor/CRE-luc cells
T1 construct: expressed in transfected cells; host or cells: BHK570
T1 sequence (P30988 25-474): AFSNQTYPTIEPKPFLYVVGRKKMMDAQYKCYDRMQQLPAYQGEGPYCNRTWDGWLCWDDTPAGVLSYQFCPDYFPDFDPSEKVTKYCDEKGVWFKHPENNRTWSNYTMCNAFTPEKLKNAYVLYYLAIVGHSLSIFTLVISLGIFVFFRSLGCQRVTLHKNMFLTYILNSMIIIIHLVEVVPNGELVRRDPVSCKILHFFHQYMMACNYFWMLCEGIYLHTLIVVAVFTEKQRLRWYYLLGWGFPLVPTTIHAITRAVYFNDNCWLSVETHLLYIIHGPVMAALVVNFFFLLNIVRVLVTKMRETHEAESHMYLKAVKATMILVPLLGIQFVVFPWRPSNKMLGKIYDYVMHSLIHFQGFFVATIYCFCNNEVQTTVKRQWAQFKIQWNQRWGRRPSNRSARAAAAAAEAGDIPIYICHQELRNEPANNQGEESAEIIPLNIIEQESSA
T1 sequence (O60896 24-148 partner): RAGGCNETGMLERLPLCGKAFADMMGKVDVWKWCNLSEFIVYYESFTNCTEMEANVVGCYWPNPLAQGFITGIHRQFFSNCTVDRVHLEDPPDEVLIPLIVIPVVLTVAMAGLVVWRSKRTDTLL

[2] = Assay (III) ThT fibrillation assay for physical stability; format: physicochemical
Outline: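 Freshly prepared formulations, pH-adjusted, with 1 μM ThT; four or eight replicates incubated at 37 °C under 960 rpm orbital shaking. Fluorescence (ex 444/em 485 nm) read every 20 min; […]. Peptide concentration measured by RP-HPLC before and after the run.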

SMILES	EC50 [1] [pM]	ThT pH 4.0 lag time ([2]; ThT fibrillation assay) [h]	ThT pH 4.0 lag time (h) ([2]; ThT fibrillation assay)	ThT pH 4.0 lag time ([2]; Table 8) [h]	ThT pH 4.0 lag time ([2]; Table 9) [h]
CC[C@H](C)[C@H](NC(=O)[C@@H]1CCCN1C(=O)CNC(=O)[C@H](Cc1ccccc1)NC(=O)[C@H](CC(N)=O)NC(=O)[C@H](CC(N)=O)NC(=O)[C@H](CO)NC(=O)[C@H](CO)NC(=O)[C@H](Cc1c[nH]cn1)NC(=O)[C@H](Cc1c[nH]cn1)NC(=O)[C@H](CC(C)C)NC(=O)[C@H](Cc1ccccc1)NC(=O)[C@H](CCC(=O)O)NC(=O)[C@H](C)NC(=O)[C@H](CC(C)C)NC(=O)[C@H](CCCNC(=N)N)NC(=O)[C@H](CCC(N)=O)NC(=O)[C@@H](NC(=O)[C@H](C)NC(=O)[C@@H]1CSSC[C@H](NC(=O)[C@H](Cc2c[nH]cn2)NC(=O)[C@H](Cc2c[nH]cn2)NC(=O)[C@H](Cc2c[nH]cn2)NC(=O)CC[C@H](NC(=O)CCCCCCCCCCCCCCCCCCC(=O)O)C(=O)O)C(=O)N[C@@H](CC(N)=O)C(=O)N[C@@H]([C@@H](C)O)C(=O)N[C@@H](C)C(=O)N[C@@H]([C@@H](C)O)C(=O)N1)[C@@H](C)O)C(=O)N[C@@H](CC(C)C)C(=O)N1CCC[C@H]1C(=O)N1CCC[C@H]1C(=O)N[C@H](C(=O)N[C@@H](CC(N)=O)C(=O)N[C@H](C(=O)NCC(=O)N[C@@H](CO)C(=O)N[C@@H](Cc1c[nH]cn1)C(=O)N[C@H](C(=O)N[C@@H](Cc1ccc(O)cc1)C(N)=O)[C@@H](C)O)C(C)C)[C@@H](C)O [Example 31, N-alpha-[(S)-4-Carboxy-4-(19-carboxynonadecanoylamino)butyryl]-His-His-[His1,Glu14,His17,His35]-pramlintide] ({C20 diacid-γGlu}-HHHCNTATCATQRLAEFLHHSSNNFGPILPPTNVGSHTY-NH2; disulfide 4-9 (inferred); C-terminus assumed)	164	>45	>45	–	–
CC[C@H](C)[C@H](NC(=O)[C@@H]1CCCN1C(=O)CNC(=O)[C@H](Cc1ccccc1)NC(=O)[C@H](CC(N)=O)NC(=O)[C@H](CC(N)=O)NC(=O)[C@H](CO)NC(=O)[C@H](CO)NC(=O)[C@H](Cc1c[nH]cn1)NC(=O)[C@H](CCCNC(=N)N)NC(=O)[C@H](CC(C)C)NC(=O)[C@H](Cc1ccccc1)NC(=O)[C@H](CCC(=O)O)NC(=O)[C@H](C)NC(=O)[C@H](CC(C)C)NC(=O)[C@H](CCCNC(=N)N)NC(=O)[C@H](CCC(N)=O)NC(=O)[C@@H](NC(=O)[C@H](C)NC(=O)[C@@H]1CSSC[C@H](NC(=O)[C@H](CCCCN)NC(=O)CC[C@H](NC(=O)CCCCCCCCCCCCCCCCC(=O)O)C(=O)O)C(=O)N[C@@H](CC(N)=O)C(=O)N[C@@H]([C@@H](C)O)C(=O)N[C@@H](C)C(=O)N[C@@H]([C@@H](C)O)C(=O)N1)[C@@H](C)O)C(=O)N[C@@H](CC(C)C)C(=O)N1CCC[C@H]1C(=O)N1CCC[C@H]1C(=O)N[C@H](C(=O)N[C@@H](CC(N)=O)C(=O)N[C@H](C(=O)NCC(=O)N[C@@H](CO)C(=O)N[C@@H](Cc1c[nH]cn1)C(=O)N[C@H](C(=O)N[C@@H](Cc1ccc(O)cc1)C(N)=O)[C@@H](C)O)C(C)C)[C@@H](C)O [Example 61, N-alpha-[(S)-4-Carboxy-4-(17-carboxyheptadecanoylamino)butyryl]-[Glu14,Arg17,His35]-pramlintide] ({C18 diacid-γGlu}-KCNTATCATQRLAEFLRHSSNNFGPILPPTNVGSHTY-NH2; disulfide 2-7 (inferred))	67.5	>45	>45	–	–

The next molecules have a lower EC50 [1] than those just listed; values first:

EC50 [1] [pM]	ThT pH 4.0 lag time ([2]; ThT fibrillation assay) [h]	ThT pH 4.0 lag time (h) ([2]; ThT fibrillation assay)	ThT pH 4.0 lag time ([2]; Table 8) [h]	ThT pH 4.0 lag time ([2]; Table 9) [h]	SMILES
46.9	27.9	27.9	27.9	–	CC[C@H](C)[C@H](NC(=O)[C@@H]1CCCN1C(=O)CNC(=O)[C@H](Cc1ccccc1)NC(=O)[C@H](CC(N)=O)NC(=O)[C@H](CC(N)=O)NC(=O)[C@H](CO)NC(=O)[C@H](CO)NC(=O)[C@H](Cc1c[nH]cn1)NC(=O)[C@H](Cc1c[nH]cn1)NC(=O)[C@H](CC(C)C)NC(=O)[C@H](Cc1ccccc1)NC(=O)[C@H](CCC(=O)O)NC(=O)[C@H](C)NC(=O)[C@H](CC(C)C)NC(=O)[C@H](CCCNC(=N)N)NC(=O)[C@H](CCC(N)=O)NC(=O)[C@@H](NC(=O)[C@H](C)NC(=O)[C@@H]1CSSC[C@H](NC(=O)[C@H](CCCCN)NC(=O)CC[C@H](NC(=O)CCCCCCCCCCCCCCCCC(=O)O)C(=O)O)C(=O)N[C@@H](CC(N)=O)C(=O)N[C@@H]([C@@H](C)O)C(=O)N[C@@H](C)C(=O)N[C@@H]([C@@H](C)O)C(=O)N1)[C@@H](C)O)C(=O)N[C@@H](CC(C)C)C(=O)N1CCC[C@H]1C(=O)N1CCC[C@H]1C(=O)N[C@H](C(=O)N[C@@H](CC(N)=O)C(=O)N[C@H](C(=O)NCC(=O)N[C@@H](CO)C(=O)N[C@@H](CC(N)=O)C(=O)N[C@H](C(=O)N[C@@H](Cc1ccc(O)cc1)C(N)=O)[C@@H](C)O)C(C)C)[C@@H](C)O [Example 46, N-alpha-[(S)-4-Carboxy-4-(17-carboxyheptadecanoylamino)butyryl]-[Glu14,His17]-pramlintide] ({C18 diacid-γGlu}-KCNTATCATQRLAEFLHHSSNNFGPILPPTNVGSNTY-NH2; disulfide 2-7 (inferred); C-terminus assumed)
25.5	>45	>45	>45	>45	CC[C@H](C)[C@H](NC(=O)[C@@H]1CCCN1C(=O)CNC(=O)[C@H](Cc1ccccc1)NC(=O)[C@H](CC(N)=O)NC(=O)[C@H](CC(N)=O)NC(=O)[C@H](CO)NC(=O)[C@H](CO)NC(=O)[C@H](Cc1c[nH]cn1)NC(=O)[C@H](CCCNC(=N)N)NC(=O)[C@H](CC(C)C)NC(=O)[C@H](Cc1ccccc1)NC(=O)[C@H](CCC(=O)O)NC(=O)[C@H](C)NC(=O)[C@H](CC(C)C)NC(=O)[C@H](CCCNC(=N)N)NC(=O)[C@H](CCC(N)=O)NC(=O)[C@@H](NC(=O)[C@H](C)NC(=O)[C@@H]1CSSC[C@H](NC(=O)[C@H](Cc2c[nH]cn2)NC(=O)CNC(=O)CC[C@H](NC(=O)CCCCCCCCCCCCCCCCCCC(=O)O)C(=O)O)C(=O)N[C@@H](CC(N)=O)C(=O)N[C@@H]([C@@H](C)O)C(=O)N[C@@H](C)C(=O)N[C@@H]([C@@H](C)O)C(=O)N1)[C@@H](C)O)C(=O)N[C@@H](CC(C)C)C(=O)N1CCC[C@H]1C(=O)N1CCC[C@H]1C(=O)N[C@H](C(=O)N[C@@H](CC(N)=O)C(=O)N[C@H](C(=O)NCC(=O)N[C@@H](CO)C(=O)N[C@@H](CC(N)=O)C(=O)N[C@H](C(=O)N1CCC[C@H]1C(N)=O)[C@@H](C)O)C(C)C)[C@@H](C)O [Example 89, N-alpha-[(S)-4-Carboxy-4-(19-carboxynonadecanoylamino)butyryl]-Gly-[His1,Glu14,Arg17,Pro37]-pramlintide] ({C20 diacid-γGlu}-GHCNTATCATQRLAEFLRHSSNNFGPILPPTNVGSNTP-NH2; disulfide 3-8 (inferred))
29.5	–	22	–	–	CC[C@H](C)[C@H](NC(=O)[C@@H]1CCCN1C(=O)CNC(=O)[C@H](Cc1ccccc1)NC(=O)[C@H](CC(N)=O)NC(=O)[C@H](CC(N)=O)NC(=O)[C@H](CO)NC(=O)[C@H](CO)NC(=O)[C@H](CCCNC(=N)N)NC(=O)[C@H](Cc1c[nH]cn1)NC(=O)[C@H](CC(C)C)NC(=O)[C@H](Cc1ccccc1)NC(=O)[C@H](CCC(=O)O)NC(=O)[C@H](C)NC(=O)[C@H](CC(C)C)NC(=O)[C@H](CCCNC(=N)N)NC(=O)[C@H](CCC(N)=O)NC(=O)[C@@H](NC(=O)[C@H](C)NC(=O)[C@@H]1CSSC[C@H](NC(=O)[C@H](CCCN)NC(=O)[C@@H](CCCNC(=N)N)NC(=O)[C@@H](CCCNC(=N)N)NC(=O)COCCOCCNC(=O)COCCOCCNC(=O)CC[C@H](NC(=O)CCCCCCCCCCCCCCCCC(=O)O)C(=O)O)C(=O)N[C@@H](CC(N)=O)C(=O)N[C@@H]([C@@H](C)O)C(=O)N[C@@H](C)C(=O)N[C@@H]([C@@H](C)O)C(=O)N1)[C@@H](C)O)C(=O)N[C@@H](CC(C)C)C(=O)N1CCC[C@H]1C(=O)N1CCC[C@H]1C(=O)N[C@H](C(=O)N[C@@H](CC(N)=O)C(=O)N[C@H](C(=O)NCC(=O)N[C@@H](CO)C(=O)N[C@@H](CC(N)=O)C(=O)N[C@H](C(=O)N[C@@H](Cc1ccc(O)cc1)C(N)=O)[C@@H](C)O)C(C)C)[C@@H](C)O [Example 120, N-alpha-[2-(2-{2-[2-(2-{2-[(S)-4-Carboxy-4-(17-carboxyheptadecanoylamino)butyrylamino]ethoxy}ethoxy)acetylamino]ethoxy}ethoxy)acetyl]-D-Arg-D-Arg-[Orn1,Glu14,His17,Arg18]-pramlintide] ({C18 diacid-γGlu-AEEA-AEEA}-[dR][dR][Orn]CNTATCATQRLAEFLHRSSNNFGPILPPTNVGSNTY-NH2; disulfide 4-9 (inferred); C-terminus assumed)
